Measurements taken from publication PMC7914897, “Cytotoxic Potential of a-Azepano- and 3-Amino-3,4-SeCo-Triterpenoids” (International Journal of Molecular Sciences, 2021).
Like-named read-outs stand apart in the source and are kept apart here.

Experiments:
SK-OV-3 (Ovarian cancer) = assay: NCI-60 screen (SRB, 48 h); settings: Homo sapiens
OVCAR-3 (Ovarian cancer) = assay: cells; settings: Homo sapiens
CCRF-CEM (Leukemia) = assay: NCI-60 screen (SRB, 48 h); settings: Homo sapiens
COLO 205 (Colon cancer) = assay: NCI-60 screen (SRB, 48 h); settings: Homo sapiens
Colon Cancer subpanel = assay: NCI-60 screen, subpanel; settings: Homo sapiens
HOP-62 (NSC lung cancer) = assay: NCI-60 screen (SRB, 48 h); settings: Homo sapiens
CNS cancer subpanel = assay: NCI-60 screen, subpanel; settings: Homo sapiens
SK-MEL-28 (Melanoma) = assay: NCI-60 screen (SRB, 48 h); settings: Homo sapiens
Renal Cancer subpanel = assay: NCI-60 screen, subpanel; settings: Homo sapiens
T-47D (Breast cancer) = assay: NCI-60 screen (SRB, 48 h); settings: Homo sapiens, T47D
[1] = system: NCI-H322M (NSC lung cancer); assay: NCI-60 screen (SRB, 48 h); settings: Homo sapiens
M14 (Melanoma) = assay: NCI-60 screen (SRB, 48 h); settings: Homo sapiens
MOLT-4 (Leukemia) = assay: NCI-60 screen (SRB, 48 h); settings: Homo sapiens
EKVX (NSC lung cancer) = assay: NCI-60 screen (SRB, 48 h); settings: Homo sapiens
SF-295 (CNS cancer) = assay: NCI-60 screen (SRB, 48 h); settings: Homo sapiens
HOP-92 (NSC lung cancer) = assay: NCI-60 screen (SRB, 48 h); settings: Homo sapiens
CAKI-1 (Renal cancer) = assay: NCI-60 screen (SRB, 48 h); settings: Homo sapiens
SW-620 (Colon cancer) = assay: NCI-60 screen (SRB, 48 h); settings: Homo sapiens
Ovarian Cancer subpanel = assay: NCI-60 screen, subpanel; settings: Homo sapiens
DU-145 (Prostate cancer) = assay: NCI-60 screen (SRB, 48 h); settings: Homo sapiens
A498 (Renal cancer) = assay: NCI-60 screen (SRB, 48 h)
SNB-75 (CNS cancer) = assay: NCI-60 screen (SRB, 48 h)
OVCAR-5 (Ovarian cancer) = assay: NCI-60 screen (SRB, 48 h); settings: Homo sapiens
[2] = system: NCI-H226 (NSC lung cancer); assay: NCI-60 screen (SRB, 48 h); settings: Homo sapiens
UO-31 (Renal cancer) = assay: NCI-60 screen (SRB, 48 h); settings: Homo sapiens
HT29 (Colon cancer) = assay: NCI-60 screen (SRB, 48 h); settings: Homo sapiens
[3] = system: panel of approximately 60 cancer cell lines; assay: NCI-60 screen (SRB, 48 h), full panel

`C=C(C)[C@@H]1CC[C@]2(C(=O)N[C@H](CO)Cc3ccccc3)CC[C@]3(C)[C@H](CC[C@@H]4[C@@]5(C)CCCNC(C)(C)[C@@H]5CC[C@]43C)[C@@H]12` [Compound 11] showed a GI50 (SK-OV-3 (Ovarian cancer); SK-OV-3) of 1.73 µM, an IC (TGI) (SK-OV-3 (Ovarian cancer); SK-OV-3, 48 h, read-out: TGI) of 3.23 µM and a GI50 (OVCAR-3 (Ovarian cancer); OVCAR-3) of 0.46 µM. For the same compound, the IC (TGI) (OVCAR-3 (Ovarian cancer); OVCAR-3, 48 h, read-out: TGI) was 1.6 µM, the GI50 (CCRF-CEM (Leukemia)) was 0.25 µM and the IC (TGI) (CCRF-CEM (Leukemia); 48 h, read-out: TGI) was 0.74 µM. The GI50 (COLO 205 (Colon cancer); COLO 205) was 1.31 µM, the IC (TGI) (COLO 205 (Colon cancer); COLO 205, 48 h, read-out: TGI) was 2.94 µM and the IC (TGI) (Colon Cancer subpanel; 48 h, read-out: TGI MG_MID) was 2.18 µM. The GI50 (Colon Cancer subpanel; read-out: GI50 MG_MID) was 0.96 µM, the CC50 (Colon Cancer subpanel; read-out: LC50 MG_MID) was 3.76 µM and the GI50 (HOP-62 (NSC lung cancer); HOP-62) was 1.71 µM. The IC (TGI) (HOP-62 (NSC lung cancer); HOP-62, 48 h, read-out: TGI) was 3.34 µM, the IC (TGI) (CNS cancer subpanel; 48 h, read-out: TGI MG_MID) was 3.08 µM and the GI50 (CNS cancer subpanel; read-out: GI50 MG_MID) was 1.51 µM. The CC50 (CNS cancer subpanel; read-out: LC50 MG_MID) was 5.72 µM, the GI50 (SK-MEL-28 (Melanoma); SK-MEL-28) was 1.55 µM and the IC (TGI) (SK-MEL-28 (Melanoma); SK-MEL-28, 48 h, read-out: TGI) was 3.03 µM. It also gave an IC (TGI) (Renal Cancer subpanel; 48 h, read-out: TGI MG_MID) of 2.93 µM, a GI50 (Renal Cancer subpanel; read-out: GI50 MG_MID) of 1.46 µM and a CC50 (Renal Cancer subpanel; read-out: LC50 MG_MID) of 5.76 µM. The GI50 (T-47D (Breast cancer)) was 1.8 µM, the IC (TGI) (T-47D (Breast cancer); 48 h, read-out: TGI) was 4.02 µM and the GI50 [1] was 1.55 µM. It also gave an IC (TGI) ([1]; 48 h, read-out: TGI) of 2.79 µM, a GI50 (M14 (Melanoma); M14) of 0.74 µM and an IC (TGI) (M14 (Melanoma); M14, 48 h, read-out: TGI) of 2.19 µM. It also gave a GI50 (MOLT-4 (Leukemia); MOLT-4) of 0.67 µM, an IC (TGI) (MOLT-4 (Leukemia); MOLT-4, 48 h, read-out: TGI) of 2.3 µM and a GI50 (EKVX (NSC lung cancer)) of 1.73 µM. For the same compound, the IC (TGI) (EKVX (NSC lung cancer); 48 h, read-out: TGI) was 3.49 µM, the GI50 (SF-295 (CNS cancer); SF-295) was 1.67 µM and the IC (TGI) (SF-295 (CNS cancer); SF-295, 48 h, read-out: TGI) was 3.21 µM. For the same compound, the GI50 (HOP-92 (NSC lung cancer); HOP-92) was 1.42 µM, the IC (TGI) (HOP-92 (NSC lung cancer); HOP-92, 48 h, read-out: TGI) was 3.01 µM and the CC50 (HOP-92 (NSC lung cancer); HOP-92, read-out: LC50) was 6.42 µM. For the same compound, the GI50 (CAKI-1 (Renal cancer); CAKI-1) was 1.49 µM, the IC (TGI) (CAKI-1 (Renal cancer); CAKI-1, 48 h, read-out: TGI) was 2.89 µM and the CC50 (CAKI-1 (Renal cancer); CAKI-1, read-out: LC50) was 5.6 µM. The GI50 (SW-620 (Colon cancer); SW-620) was 0.85 µM, the IC (TGI) (SW-620 (Colon cancer); SW-620, 48 h, read-out: TGI) was 2.26 µM and the IC (TGI) (Ovarian Cancer subpanel; 48 h, read-out: TGI MG_MID) was 2.62 µM. For the same compound, the GI50 (Ovarian Cancer subpanel; read-out: GI50 MG_MID) was 1.2 µM, the GI50 (DU-145 (Prostate cancer); DU-145) was 1.48 µM and the IC (TGI) (DU-145 (Prostate cancer); DU-145, 48 h, read-out: TGI) was 2.87 µM. The “Growth % of the Most Sensitive Cell Lines” value (A498 (Renal cancer); A498, 1 dose 10 µM) was −97.92%, the GI50 (A498 (Renal cancer); Homo sapiens, A498) was 1.49 µM and the IC (TGI) (A498 (Renal cancer); Homo sapiens, A498, 48 h, read-out: TGI) was 2.94 µM. For the same compound, the CC50 (A498 (Renal cancer); Homo sapiens, A498, read-out: LC50) was 5.81 µM, the GI50 (SNB-75 (CNS cancer); Homo sapiens, SNB-75) was 1.43 µM and the IC (TGI) (SNB-75 (CNS cancer); Homo sapiens, SNB-75, 48 h, read-out: TGI) was 2.87 µM. For the same compound, the CC50 (SNB-75 (CNS cancer); Homo sapiens, SNB-75, read-out: LC50) was 5.72 µM, the “Growth % of the Most Sensitive Cell Lines” value (SNB-75 (CNS cancer); SNB-75, 1 dose 10 µM) was −95.12% and the GI50 (OVCAR-5 (Ovarian cancer); OVCAR-5) was 1.69 µM. It also gave an IC (TGI) (OVCAR-5 (Ovarian cancer); OVCAR-5, 48 h, read-out: TGI) of 3.18 µM, a GI50 ([2]; NCI-H226) of 1.74 µM and an IC (TGI) ([2]; NCI-H226, 48 h, read-out: TGI) of 4.01 µM. For the same compound, the GI50 (UO-31 (Renal cancer); UO-31) was 1.5 µM, the IC (TGI) (UO-31 (Renal cancer); UO-31, 48 h, read-out: TGI) was 2.96 µM and the GI50 (HT29 (Colon cancer); HT-29) was 0.24 µM. For the same compound, the IC (TGI) (HT29 (Colon cancer); HT-29, 48 h, read-out: TGI) was 0.54 µM, the CC50 (HT29 (Colon cancer); HT-29, read-out: LC50) was 1.75 µM and the “number of cancer cell lines the compound was active against” value ([3]; 1 dose 10 µM) was “effective against the all NCI-60 cancer cell line panel”. For the same compound, the activity at 10 µM ([3]; Homo sapiens, 48 h, read-out: Mean Growth, %) was -83.1%, the activity at 10 µM ([3]; Homo sapiens, 48 h, read-out: Range of Growth, %) was -97.9 to -46.7% and the IC (TGI) ([3]; Homo sapiens, 48 h, read-out: TGI MG_MID60, average over all cell lines) was 2.64 µM. The GI50 ([3]; Homo sapiens, read-out: GI50 MG_MID60) was 1.29 µM, the GI50 ([3]; Homo sapiens, read-out: GI50 against all human tumor cell lines) was less than 3 µM and the GI50 ([3]; Homo sapiens, read-out: GI50 against the most sensitive cell lines) was 0.2 to 0.94 µM. For the same compound, the CC50 ([3]; Homo sapiens, read-out: LC50 MG_MID60, average over all cell lines) was 5.62 µM.
